Source: ChEMBL document CHEMBL5291721, “A preclinical secondary pharmacology resource illuminates target-adverse drug reaction associations of marketed drugs” (Nat Commun, 2023)

Legend:
[1] = biological target: Voltage-dependent L-type calcium channel subunit alpha-1C (Rattus norvegicus, UniProt P22002); format: functional
Cannabinoid receptor 1 = Cannabinoid receptor 1 (Homo sapiens, UniProt P21554)
Histamine H3 receptor = Histamine H3 receptor (Homo sapiens, UniProt Q9Y5N1)
[2] = biological target: T1, Alpha-2B adrenergic receptor (Homo sapiens, UniProt P18089)
T1 sequence (P18089 whole entry): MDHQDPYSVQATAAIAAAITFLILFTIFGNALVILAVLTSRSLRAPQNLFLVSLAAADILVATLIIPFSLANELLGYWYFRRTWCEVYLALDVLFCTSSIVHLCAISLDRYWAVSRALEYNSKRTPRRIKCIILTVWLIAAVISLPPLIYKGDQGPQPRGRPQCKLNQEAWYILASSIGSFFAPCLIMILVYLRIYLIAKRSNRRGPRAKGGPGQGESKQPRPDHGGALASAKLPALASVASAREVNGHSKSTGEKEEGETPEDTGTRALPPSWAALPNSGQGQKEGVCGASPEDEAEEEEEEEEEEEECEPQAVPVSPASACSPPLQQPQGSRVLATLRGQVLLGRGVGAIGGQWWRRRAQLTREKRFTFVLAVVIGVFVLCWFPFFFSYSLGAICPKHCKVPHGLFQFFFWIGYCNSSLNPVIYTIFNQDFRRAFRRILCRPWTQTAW

[3] = biological target: Beta-2 adrenergic receptor (Homo sapiens, UniProt P07550)
Sequence of Beta-2 adrenergic receptor (P07550 whole entry): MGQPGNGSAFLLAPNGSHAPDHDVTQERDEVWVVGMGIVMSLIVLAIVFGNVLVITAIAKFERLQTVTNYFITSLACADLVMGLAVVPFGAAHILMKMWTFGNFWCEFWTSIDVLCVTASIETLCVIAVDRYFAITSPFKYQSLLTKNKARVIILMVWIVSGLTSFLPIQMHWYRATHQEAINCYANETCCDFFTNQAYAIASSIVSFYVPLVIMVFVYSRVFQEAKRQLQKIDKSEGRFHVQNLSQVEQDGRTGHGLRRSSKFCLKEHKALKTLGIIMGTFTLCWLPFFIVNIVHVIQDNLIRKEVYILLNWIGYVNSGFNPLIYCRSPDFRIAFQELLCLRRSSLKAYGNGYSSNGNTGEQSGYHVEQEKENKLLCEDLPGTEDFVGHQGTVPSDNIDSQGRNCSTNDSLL

Melanocortin receptor 4 = Melanocortin receptor 4 (Homo sapiens, UniProt P32245)
Sequence of Melanocortin receptor 4 (P32245 whole entry): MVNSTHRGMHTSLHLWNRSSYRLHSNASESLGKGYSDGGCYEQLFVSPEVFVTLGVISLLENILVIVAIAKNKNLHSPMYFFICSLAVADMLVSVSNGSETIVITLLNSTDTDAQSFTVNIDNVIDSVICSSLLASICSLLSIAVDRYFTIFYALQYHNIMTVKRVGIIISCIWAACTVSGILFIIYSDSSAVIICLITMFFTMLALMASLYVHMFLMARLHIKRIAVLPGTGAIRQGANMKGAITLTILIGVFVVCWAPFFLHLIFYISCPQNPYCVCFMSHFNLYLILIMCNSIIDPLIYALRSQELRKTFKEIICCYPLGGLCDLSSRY

Estrogen receptor = biological target: T2, Estrogen receptor (Homo sapiens, UniProt P03372)
T2 sequence (P03372 whole entry): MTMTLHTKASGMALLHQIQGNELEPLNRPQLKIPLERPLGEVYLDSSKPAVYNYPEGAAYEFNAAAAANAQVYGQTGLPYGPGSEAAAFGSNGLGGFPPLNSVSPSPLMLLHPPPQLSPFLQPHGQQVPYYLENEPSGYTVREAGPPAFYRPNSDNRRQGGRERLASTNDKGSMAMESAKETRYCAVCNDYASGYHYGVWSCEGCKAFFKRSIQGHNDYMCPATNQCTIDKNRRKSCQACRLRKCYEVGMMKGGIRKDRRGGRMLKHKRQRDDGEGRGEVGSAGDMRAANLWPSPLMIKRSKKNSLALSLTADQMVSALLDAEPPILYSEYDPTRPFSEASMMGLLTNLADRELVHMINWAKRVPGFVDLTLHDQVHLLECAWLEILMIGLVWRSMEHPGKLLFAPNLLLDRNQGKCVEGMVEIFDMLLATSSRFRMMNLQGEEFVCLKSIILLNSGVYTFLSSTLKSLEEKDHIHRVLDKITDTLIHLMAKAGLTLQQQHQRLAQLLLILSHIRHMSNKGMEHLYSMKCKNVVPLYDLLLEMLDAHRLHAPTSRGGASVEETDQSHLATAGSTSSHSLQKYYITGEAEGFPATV

[4] = biological target: T3, Muscarinic acetylcholine receptor M1 (Homo sapiens, UniProt P11229); format: functional
T3 sequence (P11229 whole entry): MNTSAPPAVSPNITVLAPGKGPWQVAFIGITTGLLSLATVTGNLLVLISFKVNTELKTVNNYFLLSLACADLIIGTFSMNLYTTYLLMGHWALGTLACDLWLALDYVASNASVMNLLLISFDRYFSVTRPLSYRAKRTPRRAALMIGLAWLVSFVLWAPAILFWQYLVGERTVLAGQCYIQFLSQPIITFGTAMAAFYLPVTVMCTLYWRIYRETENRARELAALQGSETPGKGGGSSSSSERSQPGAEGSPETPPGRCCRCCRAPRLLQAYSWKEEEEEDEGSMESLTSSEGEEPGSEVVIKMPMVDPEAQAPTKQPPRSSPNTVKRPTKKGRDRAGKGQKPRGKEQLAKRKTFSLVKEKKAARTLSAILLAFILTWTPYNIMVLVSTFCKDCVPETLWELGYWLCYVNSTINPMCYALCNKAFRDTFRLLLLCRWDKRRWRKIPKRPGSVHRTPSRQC

[5] = biological target: T4, Alpha-1A adrenergic receptor (Homo sapiens, UniProt P35348)
T4 sequence (P35348 whole entry): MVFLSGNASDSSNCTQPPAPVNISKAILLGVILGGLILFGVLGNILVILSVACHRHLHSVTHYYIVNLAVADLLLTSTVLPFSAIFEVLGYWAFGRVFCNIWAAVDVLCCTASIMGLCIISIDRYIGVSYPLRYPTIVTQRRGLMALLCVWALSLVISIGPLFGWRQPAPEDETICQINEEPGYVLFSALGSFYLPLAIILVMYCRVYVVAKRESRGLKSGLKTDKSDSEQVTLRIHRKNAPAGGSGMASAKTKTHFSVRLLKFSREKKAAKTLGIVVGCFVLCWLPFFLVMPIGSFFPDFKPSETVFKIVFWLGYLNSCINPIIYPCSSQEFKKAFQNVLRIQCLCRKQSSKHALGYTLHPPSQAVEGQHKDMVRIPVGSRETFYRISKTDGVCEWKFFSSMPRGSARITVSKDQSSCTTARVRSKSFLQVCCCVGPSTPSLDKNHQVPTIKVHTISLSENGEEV

[6] = biological target: T4, Alpha-1A adrenergic receptor; format: functional, cell-based
[7] = biological target: T5, Equilibrative nucleoside transporter 1 (Homo sapiens, UniProt Q99808)
T5 sequence (Q99808 whole entry): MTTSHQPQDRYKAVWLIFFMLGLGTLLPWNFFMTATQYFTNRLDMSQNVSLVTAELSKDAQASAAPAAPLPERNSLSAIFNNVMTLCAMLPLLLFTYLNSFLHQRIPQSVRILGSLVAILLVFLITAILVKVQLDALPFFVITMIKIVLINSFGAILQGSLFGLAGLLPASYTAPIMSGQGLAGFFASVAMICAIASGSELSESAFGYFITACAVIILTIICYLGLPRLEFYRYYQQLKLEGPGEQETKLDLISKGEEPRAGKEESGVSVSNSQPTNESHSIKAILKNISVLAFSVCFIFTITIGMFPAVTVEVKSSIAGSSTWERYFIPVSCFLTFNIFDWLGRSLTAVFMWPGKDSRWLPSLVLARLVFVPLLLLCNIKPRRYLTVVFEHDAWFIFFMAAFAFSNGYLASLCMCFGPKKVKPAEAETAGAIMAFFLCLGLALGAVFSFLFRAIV

[8] = biological target: Muscarinic acetylcholine receptor M3 (Homo sapiens, UniProt P20309)
Sequence of Muscarinic acetylcholine receptor M3 (P20309 whole entry): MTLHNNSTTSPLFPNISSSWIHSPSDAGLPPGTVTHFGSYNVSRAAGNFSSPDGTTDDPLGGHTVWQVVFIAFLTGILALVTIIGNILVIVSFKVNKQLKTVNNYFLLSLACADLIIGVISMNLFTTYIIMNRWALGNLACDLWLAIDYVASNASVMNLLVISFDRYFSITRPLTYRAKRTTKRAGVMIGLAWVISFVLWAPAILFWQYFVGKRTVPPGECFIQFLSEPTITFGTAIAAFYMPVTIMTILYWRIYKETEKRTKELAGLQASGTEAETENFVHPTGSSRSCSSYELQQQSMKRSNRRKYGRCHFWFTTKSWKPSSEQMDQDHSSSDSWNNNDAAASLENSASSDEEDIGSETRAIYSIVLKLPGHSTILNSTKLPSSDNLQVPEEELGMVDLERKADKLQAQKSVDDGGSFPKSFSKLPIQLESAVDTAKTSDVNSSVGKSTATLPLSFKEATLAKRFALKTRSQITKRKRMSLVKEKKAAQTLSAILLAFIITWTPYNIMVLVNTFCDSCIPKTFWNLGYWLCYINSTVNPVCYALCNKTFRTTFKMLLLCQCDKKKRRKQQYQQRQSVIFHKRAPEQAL
Note: assay procedure not described here.

Sequence of Histamine H3 receptor (Q9Y5N1 whole entry): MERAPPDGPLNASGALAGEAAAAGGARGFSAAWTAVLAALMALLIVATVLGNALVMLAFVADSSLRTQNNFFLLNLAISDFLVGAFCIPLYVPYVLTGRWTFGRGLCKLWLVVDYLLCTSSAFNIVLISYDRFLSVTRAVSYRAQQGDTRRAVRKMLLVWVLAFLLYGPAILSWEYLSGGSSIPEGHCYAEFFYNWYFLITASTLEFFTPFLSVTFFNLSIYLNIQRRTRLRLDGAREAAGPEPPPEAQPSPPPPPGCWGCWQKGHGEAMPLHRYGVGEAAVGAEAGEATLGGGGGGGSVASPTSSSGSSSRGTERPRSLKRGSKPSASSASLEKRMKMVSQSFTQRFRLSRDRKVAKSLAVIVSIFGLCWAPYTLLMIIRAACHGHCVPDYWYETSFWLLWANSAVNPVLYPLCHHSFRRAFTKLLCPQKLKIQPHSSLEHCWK
Sequence of Cannabinoid receptor 1 (P21554 whole entry): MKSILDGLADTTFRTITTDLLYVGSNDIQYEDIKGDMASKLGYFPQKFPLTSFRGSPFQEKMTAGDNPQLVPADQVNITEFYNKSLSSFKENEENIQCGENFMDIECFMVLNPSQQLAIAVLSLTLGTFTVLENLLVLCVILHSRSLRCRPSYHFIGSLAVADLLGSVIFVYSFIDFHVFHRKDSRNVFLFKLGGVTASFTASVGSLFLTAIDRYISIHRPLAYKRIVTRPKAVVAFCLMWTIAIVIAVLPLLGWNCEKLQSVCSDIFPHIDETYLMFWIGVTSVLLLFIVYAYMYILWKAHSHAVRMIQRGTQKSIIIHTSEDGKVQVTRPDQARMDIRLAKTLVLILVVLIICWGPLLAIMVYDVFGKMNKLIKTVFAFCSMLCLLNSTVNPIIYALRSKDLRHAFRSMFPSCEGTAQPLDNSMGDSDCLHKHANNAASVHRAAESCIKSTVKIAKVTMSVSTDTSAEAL
Sequence of Voltage-dependent L-type calcium channel subunit alpha-1C (P22002 whole entry): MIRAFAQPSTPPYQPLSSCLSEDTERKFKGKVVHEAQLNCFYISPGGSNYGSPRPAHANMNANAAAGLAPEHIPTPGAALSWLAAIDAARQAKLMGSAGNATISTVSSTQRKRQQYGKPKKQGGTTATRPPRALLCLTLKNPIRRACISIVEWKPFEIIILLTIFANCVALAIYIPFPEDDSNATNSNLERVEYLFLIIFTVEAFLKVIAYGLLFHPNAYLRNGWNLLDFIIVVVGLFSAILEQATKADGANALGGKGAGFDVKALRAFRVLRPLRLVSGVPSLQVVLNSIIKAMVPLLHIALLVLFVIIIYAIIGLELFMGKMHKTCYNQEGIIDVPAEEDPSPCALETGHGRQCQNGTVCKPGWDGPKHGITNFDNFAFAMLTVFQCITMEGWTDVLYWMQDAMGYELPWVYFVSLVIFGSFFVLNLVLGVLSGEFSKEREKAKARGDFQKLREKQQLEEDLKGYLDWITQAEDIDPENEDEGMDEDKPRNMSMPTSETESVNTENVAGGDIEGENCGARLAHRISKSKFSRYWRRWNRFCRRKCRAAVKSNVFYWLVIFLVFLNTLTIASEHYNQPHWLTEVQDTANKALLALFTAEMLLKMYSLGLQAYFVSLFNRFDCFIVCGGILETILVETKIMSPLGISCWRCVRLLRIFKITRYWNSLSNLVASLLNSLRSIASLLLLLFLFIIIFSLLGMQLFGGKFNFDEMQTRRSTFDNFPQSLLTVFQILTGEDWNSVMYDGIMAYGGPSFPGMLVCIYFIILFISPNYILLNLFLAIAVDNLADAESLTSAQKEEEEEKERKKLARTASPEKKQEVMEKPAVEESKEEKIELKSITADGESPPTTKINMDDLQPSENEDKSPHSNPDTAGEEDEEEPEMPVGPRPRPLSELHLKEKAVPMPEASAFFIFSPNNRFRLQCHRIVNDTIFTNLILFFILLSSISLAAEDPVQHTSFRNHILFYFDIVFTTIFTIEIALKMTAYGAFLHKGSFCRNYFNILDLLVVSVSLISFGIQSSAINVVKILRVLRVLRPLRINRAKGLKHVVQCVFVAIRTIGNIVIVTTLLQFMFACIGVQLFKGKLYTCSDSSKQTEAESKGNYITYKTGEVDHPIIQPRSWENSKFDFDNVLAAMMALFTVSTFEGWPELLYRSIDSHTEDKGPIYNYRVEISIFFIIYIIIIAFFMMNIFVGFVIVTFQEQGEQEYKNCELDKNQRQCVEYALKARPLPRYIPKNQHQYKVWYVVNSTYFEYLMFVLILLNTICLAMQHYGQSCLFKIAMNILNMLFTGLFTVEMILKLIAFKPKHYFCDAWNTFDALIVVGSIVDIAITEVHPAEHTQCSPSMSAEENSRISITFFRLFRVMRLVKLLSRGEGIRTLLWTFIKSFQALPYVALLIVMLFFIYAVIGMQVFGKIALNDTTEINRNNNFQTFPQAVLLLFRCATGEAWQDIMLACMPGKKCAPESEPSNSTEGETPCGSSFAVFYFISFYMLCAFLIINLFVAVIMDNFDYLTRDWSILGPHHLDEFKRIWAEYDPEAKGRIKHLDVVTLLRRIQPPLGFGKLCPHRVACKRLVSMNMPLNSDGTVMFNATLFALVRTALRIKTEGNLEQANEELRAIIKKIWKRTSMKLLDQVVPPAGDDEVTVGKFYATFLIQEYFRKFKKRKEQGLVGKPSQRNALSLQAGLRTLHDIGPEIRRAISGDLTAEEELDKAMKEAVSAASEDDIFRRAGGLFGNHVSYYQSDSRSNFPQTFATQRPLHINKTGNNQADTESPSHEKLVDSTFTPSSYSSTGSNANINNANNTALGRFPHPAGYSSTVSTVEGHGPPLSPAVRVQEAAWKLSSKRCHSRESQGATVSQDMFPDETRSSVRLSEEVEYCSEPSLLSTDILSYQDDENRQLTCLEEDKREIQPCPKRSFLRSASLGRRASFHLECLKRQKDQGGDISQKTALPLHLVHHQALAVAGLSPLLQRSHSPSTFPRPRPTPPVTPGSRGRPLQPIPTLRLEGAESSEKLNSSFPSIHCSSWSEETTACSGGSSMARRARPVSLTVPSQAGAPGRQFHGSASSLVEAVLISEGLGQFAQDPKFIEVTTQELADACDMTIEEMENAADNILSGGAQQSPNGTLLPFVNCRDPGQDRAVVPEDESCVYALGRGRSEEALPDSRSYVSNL

AC50 [1]	AC50 (Estrogen receptor)	AC50 [4]	AC50 [8]	SMILES	AC50 (Cannabinoid receptor 1)	AC50 (Histamine H3 receptor)	AC50 [2]	AC50 [3]	AC50 (Melanocortin receptor 4)	AC50 [5]	AC50 [6]	AC50 [7]
> 10 µM	> 30 µM			C[C@H]1C[C@H]2[C@@H]3CCC4=CC(=O)C=C[C@]4(C)[C@@]3(Cl)[C@@H](O)C[C@]2(C)[C@@]1(O)C(=O)CO [BECLOMETHASONE]	> 10 µM	> 10 µM		> 10 µM	> 30 µM			> 30 µM
				CO[C@@]1(NC(=O)CSCC#N)C(=O)N2C(C(=O)O)=C(CSc3nnnn3C)CS[C@@H]21 [CEFMETAZOLE]							> 30 µM	
				CC[C@H]1OC(=O)[C@H](C)[C@@H](O[C@H]2C[C@@](C)(OC)[C@@H](O)[C@H](C)O2)[C@H](C)[C@@H](O[C@@H]2O[C@H](C)C[C@H](N(C)C)[C@H]2O)[C@](C)(OC)C[C@@H](C)C(=O)[C@H](C)[C@@H](O)[C@]1(C)O [CLARITHROMYCIN]		> 30 µM					> 30 µM	> 30 µM
> 30 µM	> 30 µM	> 30 µM	> 30 µM	C[C@@H]1CCC[C@H](C)N1NC(=O)c1ccc(Cl)c(S(N)(=O)=O)c1 [CLOPAMIDE]		> 30 µM	> 30 µM	> 30 µM			> 30 µM	> 30 µM
> 30 µM		> 30 µM	> 30 µM	O=C(O)CSCC(=O)NC1CCSC1=O (stereo not given) [ERDOSTEINE]		> 30 µM	> 30 µM	> 30 µM			> 30 µM	> 30 µM
> 30 µM	> 30 µM	> 30 µM	> 30 µM	COc1cccc(N(C)C(=S)Oc2ccc3c(c2)CCCC3)n1 [LIRANAFTATE]		> 30 µM	> 30 µM	> 30 µM			> 30 µM	> 30 µM
> 30 µM		8.7 µM	15 µM	N=C(N)c1ccc2cc(OC(=O)c3ccc(N=C(N)N)cc3)ccc2c1 [NAFAMOSTAT]		7.9 µM	12 µM				> 30 µM	
				c1ccc2c(CC3=NCCN3)cccc2c1 [NAPHAZOLINE]			0.19 µM				0.0006 µM	
0.72 µM		6.7 µM	2.2 µM	O=C(O)c1cc(O)c2c3nc4ccccc4oc-3cc(=O)c2n1 [PIRENOXINE]		> 30 µM	3.8 µM	> 30 µM			> 30 µM	> 30 µM
> 30 µM	> 30 µM	> 30 µM	> 30 µM	NS(=O)(=O)c1cc(C(=O)O)cc(N2CCCC2)c1Oc1ccccc1 [PIRETANIDE]		> 30 µM	> 30 µM	> 30 µM				
> 30 µM	> 30 µM	> 30 µM	> 30 µM	CC(C)=CCOc1ccc(/C=C/C(=O)c2ccc(OCC=C(C)C)cc2OCC(=O)O)cc1 [SOFALCONE]		> 30 µM	> 30 µM	22 µM			> 30 µM	> 30 µM

SMILES	AC50 [1]	AC50 (Estrogen receptor)	AC50 [4]	AC50 [8]	AC50 (Cannabinoid receptor 1)	AC50 (Histamine H3 receptor)	AC50 [2]	AC50 [3]	AC50 (Melanocortin receptor 4)	AC50 [5]	AC50 [6]	AC50 [7]
C[C@]1(COc2ccc(N3CCC(Oc4ccc(OC(F)(F)F)cc4)CC3)cc2)Cn2cc([N+](=O)[O-])nc2O1	> 10 µM	> 30 µM	> 10 µM		> 10 µM	> 10 µM	> 10 µM	> 10 µM	> 30 µM			
CC(=O)OCC[N+](C)(C)C [ACETYLCHOLINE]	> 10 µM				> 10 µM	> 10 µM	> 10 µM	> 30 µM	> 30 µM	> 10 µM	> 30 µM	> 30 µM
O=C(Nc1nc(-c2cc(Cl)cs2)c(N2CCN(C3CCCCC3)CC2)s1)c1cnc(N2CCC(C(=O)O)CC2)c(Cl)c1 [AVATROMBOPAG]	> 10 µM		> 10 µM	> 10 µM	> 10 µM	> 10 µM	> 10 µM	> 10 µM	> 10 µM			> 10 µM
CN(C)C(=O)Oc1cc(OC(=O)N(C)C)cc(C(O)CNC(C)(C)C)c1 (stereo not given) [BAMBUTEROL]		> 30 µM				> 30 µM		9.7 µM				> 30 µM
CO/N=C(\C(=O)N[C@@H]1C(=O)N2C(C(=O)[O-])=C(C[n+]3cccc4c3CCC4)CS[C@H]12)c1csc(N)n1 [CEFPIROME]			> 30 µM	> 30 µM			> 30 µM				> 30 µM	
NS(=O)(=O)c1cc(C2(O)NC(=O)c3ccccc32)ccc1Cl (stereo not given) [CHLORTHALIDONE]	> 10 µM				> 10 µM			> 10 µM	> 10 µM	> 10 µM		> 10 µM
Oc1c(I)cc(Cl)c2cccnc12 [CLIOQUINOL]			> 30 µM	> 30 µM			> 30 µM				> 30 µM	
O=c1oc2ccccc2c(O)c1Cc1c(O)c2ccccc2oc1=O [DICUMAROL]	> 10 µM				> 10 µM			> 10 µM	> 10 µM	> 10 µM		> 10 µM
CNC(=O)Oc1ccc2c(c1)[C@]1(C)CCN(C)[C@@H]1N2C [PHYSOSTIGMINE]	> 30 µM	> 30 µM				16 µM		> 30 µM			> 30 µM	> 30 µM
COCCCOc1ccnc(C[S+]([O-])c2nc3ccccc3[nH]2)c1C (stereo not given) [RABEPRAZOLE]	> 10 µM				> 10 µM	> 10 µM		> 10 µM	> 30 µM	> 10 µM		> 30 µM
O=C(CCCN1CCC2(CC1)C(=O)NCN2c1ccccc1)c1ccc(F)cc1 [SPIPERONE]			> 30 µM	> 30 µM		9.2 µM	2.25 µM			0.31 µM	11.8 µM	
CCSc1ccc2c(c1)N(CCCN1CCN(C)CC1)c1ccccc1S2 [THIETHYLPERAZINE]			16 µM								> 30 µM	
